In the NIST ThermoML archive (doi:10.1016/j.jct.2011.02.008):

Conditions: Liquid, Vibrating tube method

CCCCCCO [hexan-1-ol]
mass density [kg/m3]
Conditions | 278.15 K | 288.15 K | 298.15 K | 308.15 K | 318.15 K | 328.15 K | 338.15 K | 348.15 K | 358.15 K
100 kPa | 828.9 | 822.1 | 814.9 | 807.8 | 800.5 | 793 | 785.4 | 777.6 | 769.4
1000 kPa | 829.5 | 822.7 | 815.6 | 808.4 | 801.2 | 793.7 | 786.2 | 778.4 | 770
5000 kPa | 832 | 825.3 | 818.4 | 811.4 | 804.3 | 797 | 789.6 | 782 | 774.2
10000 kPa | 835 | 828.5 | 821.7 | 814.8 | 807.9 | 800.8 | 793.6 | 786.2 | 778.6
15000 kPa | 838 | 831.6 | 824.9 | 818.2 | 811.4 | 804.4 | 797.4 | 790.2 | 782.8
20000 kPa | 840.8 | 834.6 | 828 | 821.4 | 814.7 | 807.9 | 801 | 794.1 | 786.9
25000 kPa | 843.6 | 837.4 | 830.9 | 824.5 | 817.9 | 811.2 | 804.5 | 797.6 | 790.7
30000 kPa | 846.3 | 840.2 | 833.8 | 827.5 | 821 | 814.4 | 807.9 | 801.2 | 794.3
35000 kPa | 848.9 | 842.9 | 836.6 | 830.3 | 824 | 817.6 | 811.1 | 804.6 | 797.9
40000 kPa | 851.4 | 845.5 | 839.4 | 833.2 | 826.9 | 820.6 | 814.2 | 807.8 | 801.3
45000 kPa | 853.9 | 848 | 842 | 835.9 | 829.7 | 823.5 | 817.3 | 811 | 804.6
50000 kPa | 856.3 | 850.5 | 844.6 | 838.5 | 832.4 | 826.4 | 820.2 | 814 | 807.7
55000 kPa | 858.7 | 853 | 847.1 | 841.1 | 835.1 | 829.1 | 823.1 | 817 | 810.8
60000 kPa | 860.9 | 855.4 | 849.6 | 843.5 | 837.7 | 831.6 | 825.7 | 819.7 | 813.5

COC(=O)c1ccccc1 [methyl benzoate]
mass density [kg/m3]
Conditions | 278.15 K | 288.15 K | 298.15 K | 308.15 K | 318.15 K | 328.15 K | 338.15 K | 348.15 K | 358.15 K
100 kPa | 1101.5 | 1092.1 | 1082.7 | 1073 | 1063.3 | 1053.6 | 1044.1 | 1034.4 | 1024.9
1000 kPa | 1102.1 | 1092.6 | 1083.2 | 1073.6 | 1063.8 | 1054.3 | 1044.8 | 1035.1 | 1025.6
5000 kPa | 1104.4 | 1095 | 1085.8 | 1076.2 | 1066.7 | 1057.2 | 1048 | 1038.4 | 1029.1
10000 kPa | 1107.2 | 1097.9 | 1089 | 1079.5 | 1070.1 | 1060.8 | 1051.7 | 1042.4 | 1033.3
15000 kPa | 1109.9 | 1100.8 | 1091.8 | 1082.6 | 1073.4 | 1064.3 | 1055.3 | 1046.2 | 1037.3
20000 kPa | 1112.6 | 1103.6 | 1094.8 | 1085.7 | 1076.6 | 1067.6 | 1058.8 | 1049.8 | 1041.2
25000 kPa | 1115.2 | 1106.3 | 1097.6 | 1088.6 | 1079.7 | 1070.9 | 1062.2 | 1053.4 | 1044.9
30000 kPa | 1117.7 | 1109 | 1100.4 | 1091.5 | 1082.8 | 1074 | 1065.5 | 1056.9 | 1048.5
35000 kPa | 1120.2 | 1111.6 | 1103.1 | 1094.3 | 1085.7 | 1077.1 | 1068.8 | 1060.3 | 1052
40000 kPa | 1122.7 | 1114.1 | 1105.7 | 1097.1 | 1088.6 | 1080.1 | 1071.9 | 1063.5 | 1055.4
45000 kPa | 1125.1 | 1116.6 | 1108.3 | 1099.8 | 1091.4 | 1083 | 1074.9 | 1066.7 | 1058.7
50000 kPa | 1127.4 | 1119.1 | 1110.9 | 1102.4 | 1094.1 | 1085.9 | 1077.9 | 1069.8 | 1061.9
55000 kPa | 1129.7 | 1121.4 | 1113.4 | 1105 | 1096.8 | 1088.7 | 1080.8 | 1072.8 | 1065.1
60000 kPa | 1131.8 | 1123.6 | 1115.6 | 1107.4 | 1099.3 | 1091.2 | 1083.5 | 1075.5 | 1067.9
